# Patent publication US8471005B2 (Cephalon, Inc., priority 2008, dated 2013)
# pIC50: −log10 of the molar value. Like-named read-outs stand apart in the source and are kept apart here.
# Legend:
# ALK = biological target: T1, ALK (Homo sapiens, UniProt Q9UM73); experiment: ALK Kinase Assay (ELISA/TRF, PLC-γ substrate); assay type: biochemical; details: read-out: ALK Potency
# T1 construct: host or cells: baculovirus expression system
# Method in brief: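 IC50 values derive from percent inhibition plotted against log10 compound concentration and fitted to a variable-slope sigmoidal equation. The underlying reaction used 30 ng/ml ALK acting on immobilized PLC-γ (10 μg/mL in TBS) at 37° C for 15 minutes, read with Eu-N1 PT66 antibody.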
# JAK2 = biological target: T2, JAK2 (Homo sapiens, UniProt O60674); experiment: Recombinant Human JAK2 Kinase Assay (TRF); assay type: biochemical; details: read-out: JAK2 Potency
# T2 construct: host or cells: baculovirus expression system
# Method in brief: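 Baculovirus-expressed JAK2 (15 ng/ml) phosphorylated a biotinylated 15-mer peptide captured on Neutravidin-coated plates, in 20 mM HEPES pH 7.2 with 0.2 μM ATP, 1 mM MnCl2, 0.1% BSA and 2.5% DMSO. Reaction ran 20 min at room temperature; phosphopeptide was detected by time-resolved fluorescence with Eu-N1-labelled PY100 antibody.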
# [1] = ALK kinase inhibition, 1 μM ATP
# [2] = JAK2 kinase inhibition, 0.2 μM ATP
# T1 sequence (Q9UM73 19-1620): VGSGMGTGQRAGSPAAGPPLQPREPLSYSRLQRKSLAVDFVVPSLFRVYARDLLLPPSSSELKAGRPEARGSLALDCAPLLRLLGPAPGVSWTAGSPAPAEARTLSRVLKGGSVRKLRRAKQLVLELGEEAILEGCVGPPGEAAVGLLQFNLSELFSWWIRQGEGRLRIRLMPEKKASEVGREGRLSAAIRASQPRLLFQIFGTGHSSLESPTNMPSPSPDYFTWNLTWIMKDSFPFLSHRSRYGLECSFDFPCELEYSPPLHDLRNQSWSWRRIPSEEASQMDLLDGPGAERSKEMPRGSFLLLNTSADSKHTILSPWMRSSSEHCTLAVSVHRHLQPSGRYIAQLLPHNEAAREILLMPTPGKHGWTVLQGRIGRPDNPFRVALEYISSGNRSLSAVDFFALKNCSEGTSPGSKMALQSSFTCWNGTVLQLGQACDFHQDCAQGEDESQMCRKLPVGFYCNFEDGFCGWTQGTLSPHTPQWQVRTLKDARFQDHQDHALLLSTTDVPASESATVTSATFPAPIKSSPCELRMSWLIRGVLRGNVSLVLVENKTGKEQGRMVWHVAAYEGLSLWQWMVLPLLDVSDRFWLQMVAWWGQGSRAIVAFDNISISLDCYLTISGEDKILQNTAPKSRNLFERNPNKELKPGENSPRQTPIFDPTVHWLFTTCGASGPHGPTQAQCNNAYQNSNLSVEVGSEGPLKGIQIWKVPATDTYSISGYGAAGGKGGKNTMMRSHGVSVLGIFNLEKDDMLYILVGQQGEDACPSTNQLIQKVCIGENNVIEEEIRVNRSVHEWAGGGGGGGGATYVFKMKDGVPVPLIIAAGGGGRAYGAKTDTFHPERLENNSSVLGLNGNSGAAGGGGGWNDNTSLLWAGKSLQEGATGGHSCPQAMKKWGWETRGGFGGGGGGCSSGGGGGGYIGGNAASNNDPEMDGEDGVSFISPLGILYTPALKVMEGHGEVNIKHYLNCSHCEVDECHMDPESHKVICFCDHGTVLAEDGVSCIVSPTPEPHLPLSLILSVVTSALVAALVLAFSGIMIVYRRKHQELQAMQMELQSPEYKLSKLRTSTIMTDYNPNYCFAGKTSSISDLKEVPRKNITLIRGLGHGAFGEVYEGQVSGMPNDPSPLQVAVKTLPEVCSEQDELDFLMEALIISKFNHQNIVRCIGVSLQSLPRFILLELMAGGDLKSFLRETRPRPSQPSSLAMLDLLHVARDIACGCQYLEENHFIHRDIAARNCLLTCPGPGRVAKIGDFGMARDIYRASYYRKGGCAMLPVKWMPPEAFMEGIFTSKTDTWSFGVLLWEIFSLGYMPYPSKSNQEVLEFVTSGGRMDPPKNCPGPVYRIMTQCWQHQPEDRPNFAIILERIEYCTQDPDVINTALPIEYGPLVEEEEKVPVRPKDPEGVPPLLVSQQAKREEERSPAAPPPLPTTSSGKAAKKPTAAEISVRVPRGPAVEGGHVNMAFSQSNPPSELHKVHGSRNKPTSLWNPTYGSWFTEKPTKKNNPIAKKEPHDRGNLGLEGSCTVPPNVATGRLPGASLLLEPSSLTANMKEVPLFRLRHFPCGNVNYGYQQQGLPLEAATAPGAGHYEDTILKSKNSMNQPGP
# T2 sequence (O60674 whole entry): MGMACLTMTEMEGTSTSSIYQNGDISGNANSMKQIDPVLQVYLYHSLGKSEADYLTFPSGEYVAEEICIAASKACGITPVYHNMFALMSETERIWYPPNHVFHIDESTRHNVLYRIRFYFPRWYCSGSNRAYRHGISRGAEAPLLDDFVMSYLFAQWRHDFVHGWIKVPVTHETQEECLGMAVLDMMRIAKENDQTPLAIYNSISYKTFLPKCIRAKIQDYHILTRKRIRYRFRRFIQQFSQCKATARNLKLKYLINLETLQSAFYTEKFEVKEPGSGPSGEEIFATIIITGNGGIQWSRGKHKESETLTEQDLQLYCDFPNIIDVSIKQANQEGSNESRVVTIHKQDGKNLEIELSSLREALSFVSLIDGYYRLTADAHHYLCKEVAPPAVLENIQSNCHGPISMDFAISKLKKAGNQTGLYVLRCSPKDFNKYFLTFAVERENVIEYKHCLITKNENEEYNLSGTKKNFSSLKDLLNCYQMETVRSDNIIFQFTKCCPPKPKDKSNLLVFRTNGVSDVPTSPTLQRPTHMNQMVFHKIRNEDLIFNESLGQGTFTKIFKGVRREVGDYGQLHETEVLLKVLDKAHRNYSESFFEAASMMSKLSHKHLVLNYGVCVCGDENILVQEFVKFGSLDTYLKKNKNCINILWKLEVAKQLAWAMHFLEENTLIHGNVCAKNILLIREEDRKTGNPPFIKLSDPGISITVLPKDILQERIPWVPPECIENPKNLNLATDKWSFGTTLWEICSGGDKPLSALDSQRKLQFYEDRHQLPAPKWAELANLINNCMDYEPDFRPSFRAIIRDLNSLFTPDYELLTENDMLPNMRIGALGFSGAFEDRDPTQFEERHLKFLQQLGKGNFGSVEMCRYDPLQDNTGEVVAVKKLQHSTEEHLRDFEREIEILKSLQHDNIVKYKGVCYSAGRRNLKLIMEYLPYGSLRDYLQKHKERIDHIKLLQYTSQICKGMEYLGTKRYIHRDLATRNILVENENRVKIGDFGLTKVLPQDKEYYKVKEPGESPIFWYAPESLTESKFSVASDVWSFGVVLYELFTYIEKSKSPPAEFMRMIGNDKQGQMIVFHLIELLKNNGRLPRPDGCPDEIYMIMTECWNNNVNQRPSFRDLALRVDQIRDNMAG
Compound,pIC50 (ALK; [1]),pIC50 (JAK2; [2]),pIC50 (ALK; ALK Kinase Inhibition),pIC50 (JAK2; JAK2 Kinase Inhibition)
"COc1ccc(Cl)cc1-c1ccc2cnc(Nc3cccc(C(N)=O)c3)nn12 [Example 166, 3-[7-(5-Chloro-2-methoxy-phenyl)-pyrrolo[2,1-f][1,2,4]triazin-2-ylamino]-benzamide]",–,–,5.00 to 6.00,> 7.00
"CC(C)(C)NS(=O)(=O)c1cccc(-c2ccc3cnc(Nc4ccc5c(c4)C(N)C(O)C5)nn23)c1 (centres unmarked) [Example 680, 3-[2-(3-Amino-2-hydroxy-indan-5-ylamino)-pyrrolo[2,1-f][1,2,4]triazin-7-yl]-N-tert-butyl-benzenesulfonamide]",6.00 to 7.00,> 7.00,–,–
"OCCN1CCN(c2cccc(Nc3ncc4ccc(-c5cccc(Cl)c5)n4n3)c2)CC1 [Example 179, 2-(4-{3-[7-(3-Chloro-phenyl)-pyrrolo[2,1-f][1,2,4]triazin-2-ylamino]-phenyl}-piperazin-1-yl)-ethanol]",–,–,> 7.00,> 7.00
"CN1CCN(C(=O)C2CCN(c3ccc(Nc4ncc5ccc(-c6ccc(S(C)(=O)=O)cc6)n5n4)cc3)CC2)CC1 [Example 445, (1-{4-[7-(4-Methanesulfonyl-phenyl)-pyrrolo[2,1-f][1,2,4]triazin-2-ylamino]-phenyl}-piperidin-4-yl)-(4-methyl-piperazin-1-yl)-methanone]",–,–,6.00 to 7.00,> 7.00
"COc1cc(N2CCC(N3CCOCC3)CC2)ccc1Nc1ncc2ccc(-c3ccccc3CS(C)(=O)=O)n2n1 [Example 549, [7-(2-Methanesulfonylmethyl-phenyl)-pyrrolo[2,1-f][1,2,4]triazin-2-yl]-[2-methoxy-4-(4-morpholin-4-yl-piperidin-1-yl)-phenyl]-amine]",6.00 to 7.00,5.00 to 6.00,–,–
"COc1cc(C2CCN(C)CC2)ccc1Nc1ncc2ccc(-c3cccc4c3OCC4)n2n1 [Example 705, [7-(2,3-Dihydro-benzofuran-7-yl)-pyrrolo[2,1-f][1,2,4]triazin-2-yl]-[2-methoxy-4-(1-methyl-piperidin-4-yl)-phenyl]-amine]",> 7.00,6.00 to 7.00,–,–
"COc1ccc(Cl)cc1-c1ccc2cnc(Nc3ccc4[nH]ccc4c3)nn12 [Example 171, [7-(5-Chloro-2-methoxy-phenyl)-pyrrolo[2,1-f][1,2,4]triazin-2-yl]-(1H-indol-5-yl)-amine]",–,–,6.00 to 7.00,> 7.00
"CN1CCN(c2ccc(Nc3ncc4ccc(-c5cnn(C)c5)n4n3)cc2)CC1 [Example 18, [4-(4-Methyl-piperazin-1-yl)-phenyl]-[7-(1-methyl-1H-pyrazol-4-yl)-pyrrolo[2,1-f][1,2,4]triazin-2-yl]-amine]",–,–,6.00 to 7.00,> 7.00
"COc1cc(C2CCN(CC(N)=O)CC2)ccc1Nc1ncc2ccc(-c3cccc(S(=O)(=O)NC(C)(C)C)c3)n2n1 [Example 693, 2-(4-{4-[7-(3-tert-Butylsulfamoylphenyl)pyrrolo[2,1-f][1,2,4]triazin-2-ylamino]-3-methoxyphenyl)piperidin-1-yl)-acetamide]",> 7.00,6.00 to 7.00,–,–
"O=S(=O)(Nc1cccc(-c2ccc3cnc(Nc4ccc(N5CCOCC5)cc4)nn23)c1)C1CC1 [Example 414, Cyclopropanesulfonic acid {3-[2-(4-morpholin-4-yl-phenylamino)-pyrrolo[2,1-f][1,2,4]triazin-7-yl]-phenyl}-amide]",–,–,6.00 to 7.00,> 7.00
"COc1cc(Nc2ncc3ccc(-c4cc(Cl)ccc4OC)n3n2)cc(OC)c1 [Example 157, [7-(5-Chloro-2-methoxy-phenyl)-pyrrolo[2,1-f][1,2,4]triazin-2-yl]-(3,5-dimethoxy-phenyl)-amine]",–,–,6.00 to 7.00,> 7.00
"[7-(4-Methanesulfonyl-phenyl)-pyrrolo[2,1-f][1,2,4]triazin-2-yl]-[2-methoxy-4-(4-methyl-piperazin-1-yl)-phenyl]-amine [Example 1126]",> 7.00,> 7.00,–,–
"COc1ccccc1-c1ccc2cnc(Nc3ccc4c(c3)C(N)C(O)C4)nn12 (centres unmarked) [Example 681, 1-Amino-6-[7-(2-methoxy-phenyl)-pyrrolo[2,1-f][1,2,4]triazin-2-ylamino]-indan-2-ol]",6.00 to 7.00,> 7.00,–,–

# Other lines, results leading:
pIC50 (ALK; [1]),pIC50 (JAK2; [2]),pIC50 (ALK; ALK Kinase Inhibition),pIC50 (JAK2; JAK2 Kinase Inhibition),Compound
6.00 to 7.00,> 7.00,–,–,"CN(c1ccccc1-c1ccc2cnc(Nc3ccc4c(c3)ncn4CCN3CCOCC3)nn12)S(C)(=O)=O [Example 1335, N-Methyl-N-(2-{2-[1-(2-morpholin-4-yl-ethyl)-1H-benzimidazol-5-ylamino]-pyrrolo[2,1-f][1,2,4]triazin-7-yl}-phenyl)-methanesulfonamide]"
–,–,> 7.00,> 7.00,"C[C@H](O)CN1CCN(c2cc([S@@+](C)[O-])c(Nc3ncc4ccc(-c5ccccc5N(C)S(C)(=O)=O)n4n3)cc2F)CC1 [Example 1484, (R,S)—N-[2-(2-{5-Fluoro-4-[4-((S)-2-hydroxy-propyl)-piperazin-1-yl]-2-methanesulfinyl-phenylamino}-pyrrolo[2,1-f][1,2,4]triazin-7-yl)-phenyl]-N-methyl-methanesulfonamide]"
6.00 to 7.00,> 7.00,–,–,"CN1CCCC1COc1cc(Nc2ncc3ccc(-c4cccc(S(=O)(=O)NC(C)(C)C)c4)n3n2)ccc1Cl (centres unmarked) [Example 1009, N-tert-Butyl-3-{2-[4-chloro-3-(1-methyl-pyrrolidin-2-ylmethoxy)-phenylamino]-pyrrolo[2,1-f][1,2,4]triazin-7-yl}-benzenesulfonamide]"
–,–,6.00 to 7.00,6.00 to 7.00,"Cc1c(Nc2ncc3ccc(-c4ccccc4N(C)S(C)(=O)=O)n3n2)ccc2[nH]c(=O)oc12 [Example 1493, N-Methyl-N-{2-[2-(7-methyl-2-oxo-2,3-dihydro-benzoxazol-6-ylamino)-pyrrolo[2,1-f][1,2,4]triazin-7-yl]-phenyl}-methanesulfonamide]"
6.00 to 7.00,> 7.00,–,–,"COc1cc(Nc2ncc3ccc(-c4cccc(S(C)(=O)=O)c4)n3n2)ccc1C1CCN(CC(N)=O)CC1 [Example 923, 2-(4-{4-[7-(3-Methanesulfonyl-phenyl)-pyrrolo[2,1-f][1,2,4]triazin-2-ylamino]-2-methoxy-phenyl}-piperidin-1-yl)-acetamide]"
6.00 to 7.00,> 7.00,–,–,"Cn1cc(-c2ccc3cnc(Nc4ccc(N5CCN(CCO)CC5)cc4)nn23)cn1 [Example 1181, 2-(4-{4-[7-(1-Methyl-1H-pyrazol-4-yl)-pyrrolo[2,1-f][1,2,4]triazin-2-ylamino]-phenyl}-piperazin-1-yl)-ethanol]"
> 7.00,6.00 to 7.00,–,–,"COc1cc(C2CCN(CC(=O)N(C)C)CC2)ccc1Nc1ncc2ccc(-c3ccccc3OC)n2n1 [Example 811, 2-(4-{3-Methoxy-4-[7-(2-methoxy-phenyl)-pyrrolo[2,1-f][1,2,4]triazin-2-ylamino]-phenyl}-piperidin-1-yl)-N,N-dimethyl-acetamide]"
> 7.00,> 7.00,–,–,"COc1cc(N2CCC(N(C)CCO)CC2)ccc1Nc1ncc2ccc(-c3ccccc3OC)n2n1 [Example 796, 2-[(1-{3-Methoxy-4-[7-(2-methoxy-phenyl)-pyrrolo[2,1-f][1,2,4]triazin-2-ylamino]-phenyl}-piperidin-4-yl)-methyl-amino]-ethanol]"
–,–,5.00 to 6.00,> 7.00,"CS(=O)(=O)c1cccc(-c2ccc3cnc(Nc4ccc5[nH]c(CN6CCN(CCO)CC6)nc5c4)nn23)c1 [Example 1539, 2-(4-{5-[7-(3-Methanesulfonyl-phenyl)-pyrrolo[2,1-f][1,2,4]triazin-2-ylamino]-1H-benzimidazol-2-ylmethyl}-piperazin-1-yl)-ethanol]"
